In ChEMBL document CHEMBL3046641, “QSAR study of some CCR5 antagonists as anti-HIV agents using radial basis function neural network and general regression neural network on the basis of principal components” (Med Chem Res, 2012):

Molecular target: C-C chemokine receptor type 5 (Homo sapiens, UniProt P51681)
Test: Antagonist activity at Homo sapiens (human) CCR5 receptor

Chain of C-C chemokine receptor type 5 (P51681 whole entry): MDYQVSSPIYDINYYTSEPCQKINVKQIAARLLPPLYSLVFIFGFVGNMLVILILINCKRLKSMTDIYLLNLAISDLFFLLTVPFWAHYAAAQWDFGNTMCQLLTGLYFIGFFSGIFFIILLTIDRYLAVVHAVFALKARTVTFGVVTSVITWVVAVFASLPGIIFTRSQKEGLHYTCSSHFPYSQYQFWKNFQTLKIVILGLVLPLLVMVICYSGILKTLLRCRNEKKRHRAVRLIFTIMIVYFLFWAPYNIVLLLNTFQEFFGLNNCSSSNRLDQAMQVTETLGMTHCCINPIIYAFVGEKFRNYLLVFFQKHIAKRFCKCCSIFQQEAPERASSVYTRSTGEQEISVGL

| Structure (SMILES) | IC50 [µM] |
| --- | --- |
| COc1ccccc1C1CCN(CC[C@H](CN(C)S(=O)(=O)c2ccccc2)c2cccc(Cl)c2)CC1 | 1 |
| CN(C[C@@H](CCN1CCC2(CC1)C[S+]([O-])c1ccccc12)c1ccc(Cl)c(Cl)c1)S(=O)(=O)c1cccc2cccnc12 (stereo partly specified) | 14 |
| CN(C[C@@H](CCN1CCC2(CC1)CNc1ccccc12)c1cccc(Cl)c1)S(=O)(=O)c1ccccc1 | 1.2 |
| CN(C[C@@H](CCN1CCC2(CC1)C[S+]([O-])c1ccccc12)c1ccc(Cl)c(Cl)c1)S(=O)(=O)c1cncc2ccccc12 (stereo partly specified) | 1 |
| CN(C[C@@H](CCN1CCC2(CC1)C[S+]([O-])c1ccccc12)c1ccc(Cl)c(Cl)c1)S(=O)(=O)c1cccc2ccccc12 (stereo partly specified) | 2.6 |
| CN(C[C@@H](CCN1CCC2(CC1)CC(=O)c1ccccc12)c1cccc(Cl)c1)S(=O)(=O)c1ccccc1 | 3.4 |
| Cc1ccccc1C1CCN(CC[C@H](CN(C)S(=O)(=O)c2ccccc2)c2cccc(Cl)c2)CC1 | 1.2 |
| CN(C[C@@H](CCN1CCC2(CC1)CS(=O)(=O)c1ccccc12)c1ccc(Cl)c(Cl)c1)S(=O)(=O)c1cccs1 | 1.2 |
| CN(C[C@@H](CCN1CCC2(CC1)C[S+]([O-])c1ccccc12)c1ccc(Cl)c(Cl)c1)S(=O)(=O)c1cn(C)cn1 (stereo partly specified) | 1 |
| CN1C(=O)c2ccccc2C12CCN(CC[C@H](CN(C)S(=O)(=O)c1ccccc1)c1cccc(Cl)c1)CC2 | 1.5 |
| CN(C[C@@H](CCN1CCC2(CC1)C[S+]([O-])c1ccccc12)c1ccc(Cl)c(Cl)c1)S(=O)(=O)c1cccc(Cl)c1 (stereo partly specified) | 1 |
| CN(C[C@@H](CCN1CCC(c2ccccc2)CC1)c1cccc(Cl)c1)S(=O)(=O)c1ccccc1 | 10 |
| CN(C[C@@H](CCN1CCC2(CC1)C[S+]([O-])c1ccccc12)c1ccc(Cl)c(Cl)c1)S(=O)(=O)c1cccs1 (stereo partly specified) | 3.6 |
| CN(C[C@@H](CCN1CCC2(CC1)CS(=O)(=O)c1ccccc12)c1cccc(Cl)c1)S(=O)(=O)c1ccccc1 | 1 |
| CCCCCCCCS(=O)(=O)N(C)C[C@@H](CCN1CCC2(CC1)C[S+]([O-])c1ccccc12)c1ccc(Cl)c(Cl)c1 (stereo partly specified) | 1.8 |
| CN(C[C@@H](CCN1CCC2(CC1)C[S+]([O-])c1ccccc12)c1ccc(Cl)c(Cl)c1)S(=O)(=O)c1cccnc1 (stereo partly specified) | 8.49 |
| CN(C)S(=O)(=O)N(C)C[C@@H](CCN1CCC2(CC1)C[S+]([O-])c1ccccc12)c1ccc(Cl)c(Cl)c1 (stereo partly specified) | 2.7 |
| CN(C[C@@H](CCN1CCC(c2ccc(F)cc2)CC1)c1cccc(Cl)c1)S(=O)(=O)c1ccccc1 | 2.5 |
| CN(C[C@@H](CCN1CCC2(CC1)CC(=O)Nc1ccccc12)c1ccc(Cl)c(Cl)c1)S(=O)(=O)c1cccc([N+](=O)[O-])c1 | 7 |
| CN(C[C@@H](CCN1CCC2(CC1)Cc1ccccc1O2)c1cccc(Cl)c1)S(=O)(=O)c1ccccc1 | 4 |
| CN(C[C@@H](CCN1CCC2(CC1)C[S+]([O-])c1ccccc12)c1ccc(Cl)c(Cl)c1)S(=O)(=O)c1ccc(-c2ccccc2)cc1 (stereo partly specified) | 1 |
| CN(C[C@@H](CCN1CCC2(CC1)C[S+]([O-])c1ccccc12)c1ccc(Cl)c(Cl)c1)S(=O)(=O)c1ccc2ccccc2c1 (stereo partly specified) | 3.4 |
| CN(C[C@@H](CCN1CCC2(CC1)CC(O)c1ccccc12)c1cccc(Cl)c1)S(=O)(=O)c1ccccc1 (stereo partly specified) | 24 |
| CN(C[C@@H](CCN1CCC(c2cccc(C(F)(F)F)c2)CC1)c1cccc(Cl)c1)S(=O)(=O)c1ccccc1 | 2 |
| CN(C[C@@H](CCN1CCC2(CC1)C[S+]([O-])c1ccccc12)c1ccc(Cl)c(Cl)c1)S(=O)(=O)c1ccc2c(c1)CCC2 (stereo partly specified) | 5.9 |

Now those with a lower IC50, led by results:

| IC50 [µM] | Structure (SMILES) |
| --- | --- |
| 0.7 | CN(C[C@@H](CCN1CCC2(CC1)C[S+]([O-])c1ccccc12)c1cccc(Cl)c1)S(=O)(=O)c1ccccc1 (stereo partly specified) |
| 0.3 | CN(C[C@@H](CCN1CCC2(CC1)NC(=O)c1ccccc12)c1cccc(Cl)c1)S(=O)(=O)c1ccccc1 |
| 0.25 | CN(C[C@@H](CCN1CCC(c2ccc(Cl)cc2)CC1)c1cccc(Cl)c1)S(=O)(=O)c1ccccc1 |
| 0.6 | CN(C[C@@H](CCN1CCC(CCc2ccccc2)CC1)c1cccc(Cl)c1)S(=O)(=O)c1ccccc1 |
| 0.8 | CN(C[C@@H](CCN1CCC2(CC1)CS(=O)(=O)c1ccccc12)c1ccc(Cl)c(Cl)c1)S(=O)(=O)c1cccc([N+](=O)[O-])c1 |
| 0.7 | CN(C[C@@H](CCN1CCC2(CC1)CS(=O)(=O)c1ccccc12)c1ccc(Cl)c(Cl)c1)S(=O)(=O)c1ccc([N+](=O)[O-])cc1 |
| 0.05 | CN(C[C@@H](CCN1CCC2(CC1)C[S+]([O-])c1ccccc12)c1ccc(Cl)c(Cl)c1)S(=O)(=O)C1CCCCC1 (stereo partly specified) |
| 0.05 | CN(C[C@@H](CCN1CCC(CCCc2ccccc2)CC1)c1cccc(Cl)c1)S(=O)(=O)c1ccccc1 |
| 0.15 | CN(C[C@@H](CCN1CCC2(CC1)C[S+]([O-])c1ccccc12)c1ccc(Cl)c(Cl)c1)S(C)(=O)=O (stereo partly specified) |
| 0.45 | CN(C[C@@H](CCN1CCC2(CC1)C[S+]([O-])c1ccccc12)c1ccc(Cl)c(Cl)c1)S(=O)(=O)c1ccccc1Cl (stereo partly specified) |
| 0.4 | CN(C[C@@H](CCN1CCC2(CC1)CSc1ccccc12)c1ccc(Cl)c(Cl)c1)S(=O)(=O)c1ccccc1 |
| 0.899 | CN(C[C@@H](CCN1CCC2(CCc3ccccc32)CC1)c1cccc(Cl)c1)S(=O)(=O)c1ccccc1 |
| 0.5 | CN(C[C@@H](CCN1CCC2(CC1)C[S+]([O-])c1ccccc12)c1ccc(Cl)c(Cl)c1)S(=O)(=O)C1CCCC1 (stereo partly specified) |
| 0.35 | COc1ccc(S(=O)(=O)N(C)C[C@@H](CCN2CCC3(CC2)C[S+]([O-])c2ccccc23)c2ccc(Cl)c(Cl)c2)cc1 (stereo partly specified) |
| 0.4 | CN(C[C@@H](CCN1CCC2(CC1)CS(=O)(=O)c1ccccc12)c1ccc(Cl)c(Cl)c1)S(=O)(=O)c1ccccc1 |
| 0.1 | CN(C[C@@H](CCN1CCC2(CC1)C[S+]([O-])c1ccccc12)c1ccc(Cl)c(Cl)c1)S(=O)(=O)Cc1ccccc1 (stereo partly specified) |
| 0.35 | CN(C[C@@H](CCN1CCC2(CC1)C[S+]([O-])c1ccccc12)c1ccc(Cl)c(Cl)c1)S(=O)(=O)c1ccc(Cl)cc1 (stereo partly specified) |
| 0.6 | CN(C[C@@H](CCN1CCC2(CC1)CNC(=O)c1ccccc12)c1ccc(Cl)c(Cl)c1)S(=O)(=O)c1cccc([N+](=O)[O-])c1 |
| 0.35 | Cc1ccccc1N1CCN(CC[C@H](CN(C)S(=O)(=O)c2ccccc2)c2cccc(Cl)c2)CC1 |
| 0.65 | CN(C[C@@H](CCN1CCC(Cc2ccccc2)CC1)c1cccc(Cl)c1)S(=O)(=O)c1ccccc1 |
| 0.6 | CN(C[C@@H](CCN1CCC2(CC1)CSc1ccccc12)c1cccc(Cl)c1)S(=O)(=O)c1ccccc1 |
